Measurements: PubChem BioAssay (NCI)
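A five-concentration, 48-hour dose response in 96-well plates underlies each endpoint, interpolated linearly between surrounding concentrations. TGI marks complete inhibition of growth.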

Columns and labels:
Assay in all cases: NCI-60 cell line screen, 48 h
786-0 renal = tested on: 786-0 renal
A549 NSCLC = tested on: A549 NSCLC
ACHN renal = tested on: ACHN renal
CAKI-1 renal = tested on: CAKI-1 renal
CCRF-CEM leukemia = tested on: CCRF-CEM leukemia
COLO 205 colon = tested on: COLO 205 colon
DLD-1 colon = tested on: DLD-1 colon
DMS 273 small cell lung = tested on: DMS 273 small cell lung
EKVX NSCLC = tested on: EKVX NSCLC
HCC-2998 colon = tested on: HCC-2998 colon
HCT-116 colon = tested on: HCT-116 colon
HCT-15 colon = tested on: HCT-15 colon
HL-60(TB) leukemia = tested on: HL-60(TB) leukemia
HOP-18 NSCLC = tested on: HOP-18 NSCLC
HOP-62 NSCLC = tested on: HOP-62 NSCLC
HOP-92 NSCLC = tested on: HOP-92 NSCLC
HT29 colon = tested on: HT29 colon
K-562 leukemia = tested on: K-562 leukemia
KM12 colon = tested on: KM12 colon
KM20L2 colon = tested on: KM20L2 colon
LOX IMVI melanoma = tested on: LOX IMVI melanoma
LXFL 529 NSCLC = tested on: LXFL 529 NSCLC
M14 melanoma = tested on: M14 melanoma
M19-MEL melanoma = tested on: M19-MEL melanoma
MALME-3M melanoma = tested on: MALME-3M melanoma
MOLT-4 leukemia = tested on: MOLT-4 leukemia
NCI-H226 lung = tested on: NCI-H226 lung
NCI-H23 lung = tested on: NCI-H23 lung
NCI-H460 lung = tested on: NCI-H460 lung
NCI-H522 lung = tested on: NCI-H522 lung
OVCAR-3 ovarian = tested on: OVCAR-3 ovarian
OVCAR-4 ovarian = tested on: OVCAR-4 ovarian
OVCAR-5 ovarian = tested on: OVCAR-5 ovarian
OVCAR-8 ovarian = tested on: OVCAR-8 ovarian
RPMI-8226 leukemia = tested on: RPMI-8226 leukemia
RXF 393 renal = tested on: RXF 393 renal
SF-268 CNS = tested on: SF-268 CNS
SF-295 CNS = tested on: SF-295 CNS
SF-539 CNS = tested on: SF-539 CNS
SK-MEL-2 melanoma = tested on: SK-MEL-2 melanoma
SK-MEL-28 melanoma = tested on: SK-MEL-28 melanoma
SK-MEL-5 melanoma = tested on: SK-MEL-5 melanoma
SK-OV-3 ovarian = tested on: SK-OV-3 ovarian
SN12C renal = tested on: SN12C renal
SNB-19 CNS = tested on: SNB-19 CNS
SNB-75 CNS = tested on: SNB-75 CNS
SNB-78 CNS = tested on: SNB-78 CNS
SR leukemia = tested on: SR leukemia
SW-620 colon = tested on: SW-620 colon
TK-10 renal = tested on: TK-10 renal
U251 CNS = tested on: U251 CNS
UACC-257 melanoma = tested on: UACC-257 melanoma
UACC-62 melanoma = tested on: UACC-62 melanoma
UO-31 renal = tested on: UO-31 renal
XF 498 CNS = tested on: XF 498 CNS
A498 renal = tested on: A498 renal
DMS 114 small cell lung = tested on: DMS 114 small cell lung
DU-145 prostate = tested on: DU-145 prostate
IGROV1 ovarian = tested on: IGROV1 ovarian
MCF7 breast = tested on: MCF7 breast
MDA-MB-231 breast = tested on: MDA-MB-231 breast
MDA-MB-435 = tested on: MDA-MB-435
MDA-N = tested on: MDA-N
PC-3 prostate = tested on: PC-3 prostate

Measured: TGI

CCOc1ccc(NCC(=O)N2CC(=O)Nc3ccccc32)cc1
not listed: A498 renal | DMS 114 small cell lung | DU-145 prostate | IGROV1 ovarian | MCF7 breast | MDA-MB-231 breast | MDA-MB-435 | MDA-N | PC-3 prostate
> 100 µM: all other assays above

C=CCOc1cc2c(cc1C(C)c1ccc(OC)cc1)OCO2 (stereo not drawn)
0.485 µM: RXF 393 renal
> 74.3 µM: SF-268 CNS
> 87.8 µM: UO-31 renal
63.9 µM: LXFL 529 NSCLC
> 31.7 µM: CCRF-CEM leukemia
1.91 µM: MDA-MB-435
12.7 µM: HCC-2998 colon
> 42.8 µM: M14 melanoma
> 74.4 µM: RPMI-8226 leukemia
1.34 µM: SF-539 CNS
> 83.9 µM: LOX IMVI melanoma
0.541 µM: NCI-H522 lung
0.527 µM: SNB-75 CNS
> 87.5 µM: UACC-62 melanoma
0.695 µM: SR leukemia
> 40.6 µM: MOLT-4 leukemia
5.97 µM: OVCAR-8 ovarian
40.2 µM: NCI-H226 lung
0.817 µM: SF-295 CNS
0.838 µM: DMS 114 small cell lung
2.26 µM: HT29 colon
65.9 µM: KM12 colon
> 56.3 µM: SK-MEL-5 melanoma
> 47.9 µM: HCT-116 colon
2.6 µM: HL-60(TB) leukemia
6.44 µM: UACC-257 melanoma
1.21 µM: KM20L2 colon
> 62.7 µM: HOP-62 NSCLC
0.753 µM: XF 498 CNS
not listed: COLO 205 colon | HOP-18 NSCLC | HOP-92 NSCLC | NCI-H460 lung | OVCAR-3 ovarian | SK-OV-3 ovarian
> 100 µM: all other assays above
